Data as given in ChEMBL document CHEMBL4325932, “Adaptable Small Ligand of CYP1 Enzymes for Use in Understanding the Structural Features Determining Isoform Selectivity” (ACS Med Chem Lett, 2018).
pIC50: −log10 of the molar value.

Key:
Type in all cases: cell membranes
Cytochrome P450 1A1 = biological target: T1, Cytochrome P450 1A1 (Homo sapiens, UniProt P04798); test: Inhibition of recombinant human CYP1A1 expressed in Escherichia coli membranes co-expressing NADPH-P450 reductase assessed as reduction in ethoxyresorufin O-de-ethylation preincubated for 3 mins followed by NADPH addition and measured after 10 mins by fluorometric method
T1 sequence (P04798 whole entry): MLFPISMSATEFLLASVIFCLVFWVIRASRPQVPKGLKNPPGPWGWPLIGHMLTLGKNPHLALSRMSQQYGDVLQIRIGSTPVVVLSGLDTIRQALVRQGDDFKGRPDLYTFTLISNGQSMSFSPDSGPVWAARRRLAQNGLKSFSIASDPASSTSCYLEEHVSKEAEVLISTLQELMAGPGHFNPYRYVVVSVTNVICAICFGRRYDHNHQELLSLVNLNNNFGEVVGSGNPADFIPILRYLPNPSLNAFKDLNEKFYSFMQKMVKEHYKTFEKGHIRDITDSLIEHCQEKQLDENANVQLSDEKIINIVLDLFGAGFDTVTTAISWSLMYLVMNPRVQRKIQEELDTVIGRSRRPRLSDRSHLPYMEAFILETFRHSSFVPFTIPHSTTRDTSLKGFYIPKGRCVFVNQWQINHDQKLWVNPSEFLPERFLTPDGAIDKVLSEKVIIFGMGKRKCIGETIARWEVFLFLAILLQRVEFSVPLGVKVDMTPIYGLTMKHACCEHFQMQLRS

Homo sapiens [1] = species on record: Homo sapiens; test: Selectivity ratio of IC50 for recombinant human CYP1A1 expressed in Escherichia coli membranes to IC50 for recombinant human CYP1B1 expressed in Escherichia coli membranes
Homo sapiens [2] = species on record: Homo sapiens; test: Selectivity ratio of IC50 for recombinant human CYP1A2 expressed in Escherichia coli membranes to IC50 for recombinant human CYP1B1 expressed in Escherichia coli membranes
Homo sapiens [3] = species on record: Homo sapiens; test: Selectivity ratio of IC50 for recombinant human CYP1A1 expressed in Escherichia coli membranes to IC50 for recombinant human CYP1A2 expressed in Escherichia coli membranes
Cytochrome P450 1B1 = biological target: T2, Cytochrome P450 1B1 (Homo sapiens, UniProt Q16678); test: Inhibition of recombinant human CYP1B1 expressed in Escherichia coli membranes co-expressing NADPH-P450 reductase assessed as reduction in ethoxyresorufin O-de-ethylation preincubated for 3 mins followed by NADPH addition and measured after 10 mins by fluorometric method
T2 sequence (Q16678 whole entry): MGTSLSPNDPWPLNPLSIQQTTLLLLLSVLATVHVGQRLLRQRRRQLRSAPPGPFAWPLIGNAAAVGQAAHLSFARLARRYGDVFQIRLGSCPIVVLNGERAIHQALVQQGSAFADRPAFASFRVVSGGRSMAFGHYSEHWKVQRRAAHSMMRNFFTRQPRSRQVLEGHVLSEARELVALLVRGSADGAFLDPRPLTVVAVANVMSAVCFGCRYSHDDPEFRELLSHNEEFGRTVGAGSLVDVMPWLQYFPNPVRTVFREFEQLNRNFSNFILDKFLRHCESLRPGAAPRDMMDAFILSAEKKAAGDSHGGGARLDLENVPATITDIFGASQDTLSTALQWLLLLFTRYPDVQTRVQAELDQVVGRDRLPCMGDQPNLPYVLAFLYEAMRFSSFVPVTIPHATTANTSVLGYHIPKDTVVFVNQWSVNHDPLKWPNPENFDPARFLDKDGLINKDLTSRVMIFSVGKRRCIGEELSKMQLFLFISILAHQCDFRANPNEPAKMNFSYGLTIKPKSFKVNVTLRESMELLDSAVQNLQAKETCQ

Cytochrome P450 1A2 = biological target: T3, Cytochrome P450 1A2 (Homo sapiens, UniProt P05177); test: Inhibition of recombinant human CYP1A2 expressed in Escherichia coli membranes co-expressing NADPH-P450 reductase assessed as reduction in ethoxyresorufin O-de-ethylation preincubated for 3 mins followed by NADPH addition and measured after 10 mins by fluorometric method
T3 sequence (P05177 whole entry): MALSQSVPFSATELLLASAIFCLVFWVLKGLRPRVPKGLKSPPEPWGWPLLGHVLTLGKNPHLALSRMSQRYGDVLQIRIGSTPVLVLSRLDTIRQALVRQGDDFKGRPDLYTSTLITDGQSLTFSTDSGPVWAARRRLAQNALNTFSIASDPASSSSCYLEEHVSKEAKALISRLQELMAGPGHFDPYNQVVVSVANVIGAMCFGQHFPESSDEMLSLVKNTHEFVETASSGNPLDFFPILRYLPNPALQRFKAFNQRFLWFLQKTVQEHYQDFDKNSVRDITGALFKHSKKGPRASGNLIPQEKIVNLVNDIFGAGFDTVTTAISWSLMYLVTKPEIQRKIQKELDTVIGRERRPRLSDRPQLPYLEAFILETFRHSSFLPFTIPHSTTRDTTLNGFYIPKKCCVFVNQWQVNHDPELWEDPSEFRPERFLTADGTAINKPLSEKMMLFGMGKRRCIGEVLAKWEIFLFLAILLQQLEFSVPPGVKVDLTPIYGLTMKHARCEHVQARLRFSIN

Row | Compound | pIC50 (Cytochrome P450 1A1) | Ratio IC50 (Homo sapiens [1]) | Ratio IC50 (Homo sapiens [2]) | Ratio IC50 (Homo sapiens [3]) | pIC50 (Cytochrome P450 1B1) | pIC50 (Cytochrome P450 1A2)
1 | O=c1cc(-c2ccccc2)oc2c1ccc1ccccc12 [ALPHA-NAPHTHOFLAVONE] | 7.26 |  |  |  |  | 
2 | COc1cc(/C=C/c2cccs2)cc(OCCn2ccnc2)c1 | 7.39 | 10.3 | 0.4 | 27.3 | 8.40 | 8.82
3 | COc1cc(/C=C/c2cccs2)cc(OC)c1 |  | 30.5 | 5.5 | 5.5 |  | 
